Source: ChEMBL document CHEMBL3045835, “Comparative study of conventional and microwave-assisted synthesis of some Schiff bases and their potential as antimicrobial agents” (2012)
≈ marks a conversion by molar mass, not a printed value.

How the values were obtained:
Type in all cases: functional
[1] = test system: Bacillus pumilus; assay: Antibacterial activity against Bacillus pumilus MTCC 1456 at 100 ug/ml after 18 hr by cup-plate method; settings: MTCC 1456, 18 h, read-out: DIZ
[2] = test system: Pseudomonas aeruginosa; assay: Antibacterial activity against Pseudomonas aeruginosa MTCC 424 at 100 ug/ml after 18 hr by cup-plate method; settings: MTCC 424, 18 h, read-out: DIZ
[3] = test system: Staphylococcus aureus; assay: Antibacterial activity against Staphylococcus aureus MTCC 1430 after 24 hr by broth dilution method; settings: MTCC 1430, 24 h
[4] = test system: Escherichia coli; assay: Antibacterial activity against Escherichia coli MTCC 1573 after 24 hr by broth dilution method; settings: MTCC 1573, 24 h
[5] = test system: Pseudomonas fluorescens; assay: Antibacterial activity against Pseudomonas fluorescens MTCC 2421 at 100 ug/ml after 18 hr by cup-plate method; settings: MTCC 2421, 18 h, read-out: DIZ
[6] = test system: Bacillus subtilis; assay: Antibacterial activity against Bacillus subtilis MTCC 441 after 24 hr by broth dilution method; settings: MTCC 441, 24 h
[7] = test system: Bacillus subtilis; assay: Antibacterial activity against Bacillus subtilis MTCC 441 at 100 ug/ml after 18 hr by cup plate method; settings: MTCC 441, 18 h, read-out: DIZ
[8] = test system: Staphylococcus aureus; assay: Antibacterial activity against Staphylococcus aureus MTCC 1430 at 100 ug/ml after 18 hr by cup-plate method; settings: MTCC 1430, 18 h, read-out: DIZ
[9] = test system: Pseudomonas fluorescens; assay: Antibacterial activity against Pseudomonas fluorescens MTCC 2421 after 24 hr by broth dilution method; settings: MTCC 2421, 24 h
[10] = test system: Micrococcus luteus; assay: Antibacterial activity against Micrococcus luteus MTCC 1538 after 24 hr by broth dilution method; settings: MTCC 1538, 24 h
[11] = test system: Pseudomonas aeruginosa; assay: Antibacterial activity against Pseudomonas aeruginosa MTCC 424 after 24 hr by broth dilution method; settings: MTCC 424, 24 h
[12] = test system: Bacillus pumilus; assay: Antibacterial activity against Bacillus pumilus MTCC 1456 after 24 hr by broth dilution method; settings: MTCC 1456, 24 h
[13] = test system: Micrococcus luteus; assay: Antibacterial activity against Micrococcus luteus MTCC 1538 at 100 ug/ml after 18 hr by cup-plate method; settings: MTCC 1538, 18 h, read-out: DIZ
[14] = test system: Escherichia coli; assay: Antibacterial activity against Escherichia coli MTCC 1573 at 100 ug/ml after 18 hr by cup-plate method; settings: MTCC 1573, 18 h, read-out: DIZ
[15] = test system: Aspergillus niger; assay: Antifungal activity against Aspergillus niger MTCC 2546 at 500 ug/ml after 18 hr by cup-plate method; settings: MTCC 2546, 18 h, read-out: DIZ
[16] = test system: Bacillus pumilus; assay: Antibacterial activity against Bacillus pumilus MTCC 1456 at 1500 ug/ml after 18 hr by cup-plate method; settings: MTCC 1456, 18 h, read-out: DIZ
[17] = test system: Bacillus subtilis; assay: Antibacterial activity against Bacillus subtilis MTCC 441 at 1500 ug/ml after 18 hr by cup plate method; settings: MTCC 441, 18 h, read-out: DIZ
[18] = test system: Bacillus subtilis; assay: Antibacterial activity against Bacillus subtilis MTCC 441 at 1000 ug/ml after 18 hr by cup plate method; settings: MTCC 441, 18 h, read-out: DIZ
[19] = test system: Pseudomonas fluorescens; assay: Antibacterial activity against Pseudomonas fluorescens MTCC 2421 at 200 ug/ml after 18 hr by cup-plate method; settings: MTCC 2421, 18 h, read-out: DIZ
[20] = test system: Pseudomonas aeruginosa; assay: Antibacterial activity against Pseudomonas aeruginosa MTCC 424 at 1000 ug/ml after 18 hr by cup-plate method; settings: MTCC 424, 18 h, read-out: DIZ
[21] = test system: Staphylococcus aureus; assay: Antibacterial activity against Staphylococcus aureus MTCC 1430 at 1000 ug/ml after 18 hr by cup-plate method; settings: MTCC 1430, 18 h, read-out: DIZ
[22] = test system: Staphylococcus aureus; assay: Antibacterial activity against Staphylococcus aureus MTCC 1430 at 500 ug/ml after 18 hr by cup-plate method; settings: MTCC 1430, 18 h, read-out: DIZ
[23] = test system: Penicillium chrysogenum; assay: Antifungal activity against Penicillium chrysogenum MTCC 161 at 1500 ug/ml after 18 hr by cup-plate method; settings: MTCC 161, 18 h, read-out: DIZ
[24] = test system: Aspergillus niger; assay: Antifungal activity against Aspergillus niger MTCC 2546 at 1500 ug/ml after 18 hr by cup-plate method; settings: MTCC 2546, 18 h, read-out: DIZ
[25] = test system: Escherichia coli; assay: Antibacterial activity against Escherichia coli MTCC 1573 at 1500 ug/ml after 18 hr by cup-plate method; settings: MTCC 1573, 18 h, read-out: DIZ
[26] = test system: Micrococcus luteus; assay: Antibacterial activity against Micrococcus luteus MTCC 1538 at 1500 ug/ml after 18 hr by cup-plate method; settings: MTCC 1538, 18 h, read-out: DIZ
[27] = test system: Pseudomonas fluorescens; assay: Antibacterial activity against Pseudomonas fluorescens MTCC 2421 at 1000 ug/ml after 18 hr by cup-plate method; settings: MTCC 2421, 18 h, read-out: DIZ
[28] = test system: Staphylococcus aureus; assay: Antibacterial activity against Staphylococcus aureus MTCC 1430 at 1500 ug/ml after 18 hr by cup-plate method; settings: MTCC 1430, 18 h, read-out: DIZ
[29] = test system: Bacillus pumilus; assay: Antibacterial activity against Bacillus pumilus MTCC 1456 at 1000 ug/ml after 18 hr by cup-plate method; settings: MTCC 1456, 18 h, read-out: DIZ
[30] = test system: Micrococcus luteus; assay: Antibacterial activity against Micrococcus luteus MTCC 1538 at 500 ug/ml after 18 hr by cup-plate method; settings: MTCC 1538, 18 h, read-out: DIZ
[31] = test system: Penicillium chrysogenum; assay: Antifungal activity against Penicillium chrysogenum MTCC 161 after 24 hr by broth dilution method; settings: MTCC 161, 24 h
[32] = test system: Penicillium chrysogenum; assay: Antifungal activity against Penicillium chrysogenum MTCC 161 at 1000 ug/ml after 18 hr by cup-plate method; settings: MTCC 161, 18 h, read-out: DIZ
[33] = test system: Staphylococcus aureus; assay: Antibacterial activity against Staphylococcus aureus MTCC 1430 at 200 ug/ml after 18 hr by cup-plate method; settings: MTCC 1430, 18 h, read-out: DIZ
[34] = test system: Escherichia coli; assay: Antibacterial activity against Escherichia coli MTCC 1573 at 1000 ug/ml after 18 hr by cup-plate method; settings: MTCC 1573, 18 h, read-out: DIZ
[35] = test system: Penicillium chrysogenum; assay: Antifungal activity against Penicillium chrysogenum MTCC 161 at 500 ug/ml after 18 hr by cup-plate method; settings: MTCC 161, 18 h, read-out: DIZ
[36] = test system: Pseudomonas aeruginosa; assay: Antibacterial activity against Pseudomonas aeruginosa MTCC 424 at 1500 ug/ml after 18 hr by cup-plate method; settings: MTCC 424, 18 h, read-out: DIZ
[37] = test system: Micrococcus luteus; assay: Antibacterial activity against Micrococcus luteus MTCC 1538 at 200 ug/ml after 18 hr by cup-plate method; settings: MTCC 1538, 18 h, read-out: DIZ
[38] = test system: Aspergillus niger; assay: Antifungal activity against Aspergillus niger MTCC 2546 at 1000 ug/ml after 18 hr by cup-plate method; settings: MTCC 2546, 18 h, read-out: DIZ
[39] = test system: Micrococcus luteus; assay: Antibacterial activity against Micrococcus luteus MTCC 1538 at 1000 ug/ml after 18 hr by cup-plate method; settings: MTCC 1538, 18 h, read-out: DIZ
[40] = test system: Aspergillus niger; assay: Antifungal activity against Aspergillus niger MTCC 2546 after 24 hr by broth dilution method; settings: MTCC 2546, 24 h
[41] = test system: Pseudomonas fluorescens; assay: Antibacterial activity against Pseudomonas fluorescens MTCC 2421 at 500 ug/ml after 18 hr by cup-plate method; settings: MTCC 2421, 18 h, read-out: DIZ
[42] = test system: Pseudomonas fluorescens; assay: Antibacterial activity against Pseudomonas fluorescens MTCC 2421 at 1500 ug/ml after 18 hr by cup-plate method; settings: MTCC 2421, 18 h, read-out: DIZ

Which results are given for `CCn1cc(C(=O)O)c(=O)c2cc(F)c(N3CCNCC3)cc21` [NORFLOXACIN]?
zone of inhibition at 100 µg/mL [1]: 28 mm; zone of inhibition at 100 µg/mL [2]: 28 mm; MIC [3]: 50 µg/mL (≈ 157 µM); MIC [4]: 50 µg/mL (≈ 157 µM); zone of inhibition at 100 µg/mL [5]: 25 mm; MIC [6]: 50 µg/mL (≈ 157 µM); zone of inhibition at 100 µg/mL [7]: 23 mm; zone of inhibition at 100 µg/mL [8]: 25 mm; MIC [9]: 50 µg/mL (≈ 157 µM); MIC [10]: 50 µg/mL (≈ 157 µM); MIC [11]: 50 µg/mL (≈ 157 µM); MIC [12]: 50 µg/mL (≈ 157 µM); zone of inhibition at 100 µg/mL [13]: 26 mm; zone of inhibition at 100 µg/mL [14]: 36 mm

With `Clc1ccc(/N=C\c2cccc3ccccc23)cc1` as the compound, how does the zone of inhibition at 500 µg/mL [15] read?
The zone of inhibition at 500 µg/mL was 11 mm.

And the zone of inhibition at 1500 µg/mL [16]?
Its zone of inhibition at 1500 µg/mL is 10 mm.

And the zone of inhibition at 1500 µg/mL [17]?
The zone of inhibition at 1500 µg/mL was 17 mm.

What about the zone of inhibition at 1000 µg/mL [18] of the same compound?
Its zone of inhibition at 1000 µg/mL is 15 mm.

And the zone of inhibition at 200 µg/mL [19]?
The zone of inhibition at 200 µg/mL was 12 mm.

What about the MIC [3] of the same compound?
The MIC was 400 µg/mL (≈ 1510 µM).

And the MIC [4]?
The MIC was 500 µg/mL (≈ 1880 µM).

And the zone of inhibition at 1000 µg/mL [20]?
The zone of inhibition at 1000 µg/mL was 13 mm.

What about the zone of inhibition at 100 µg/mL [5] of the same compound?
The zone of inhibition at 100 µg/mL was 11 mm.

What about the zone of inhibition at 1000 µg/mL [21] of the same compound?
Its zone of inhibition at 1000 µg/mL is 18 mm.

And the zone of inhibition at 500 µg/mL [22]?
Its zone of inhibition at 500 µg/mL is 15 mm.

And the zone of inhibition at 1500 µg/mL [23]?
The zone of inhibition at 1500 µg/mL was 14 mm.

What about the MIC [6] of the same compound?
Its MIC is 500 µg/mL (≈ 1880 µM).

And the zone of inhibition at 1500 µg/mL [24]?
Its zone of inhibition at 1500 µg/mL is 15 mm.

What about the zone of inhibition at 1500 µg/mL [25] of the same compound?
The zone of inhibition at 1500 µg/mL was 17 mm.

What about the zone of inhibition at 1500 µg/mL [26] of the same compound?
The zone of inhibition at 1500 µg/mL was 25 mm.

And the zone of inhibition at 1000 µg/mL [27]?
Its zone of inhibition at 1000 µg/mL is 17 mm.

And the zone of inhibition at 1500 µg/mL [28]?
Its zone of inhibition at 1500 µg/mL is 21 mm.

And the zone of inhibition at 100 µg/mL [8]?
The zone of inhibition at 100 µg/mL was 11 mm.

What about the zone of inhibition at 1000 µg/mL [29] of the same compound?
The zone of inhibition at 1000 µg/mL was 9 mm.

And the zone of inhibition at 500 µg/mL [30]?
The zone of inhibition at 500 µg/mL was 19 mm.

What about the MIC [9] of the same compound?
The MIC was 300 µg/mL (≈ 1130 µM).

What about the MIC [31] of the same compound?
Its MIC is 500 µg/mL (≈ 1880 µM).

What about the zone of inhibition at 1000 µg/mL [32] of the same compound?
Its zone of inhibition at 1000 µg/mL is 13 mm.

And the zone of inhibition at 200 µg/mL [33]?
Its zone of inhibition at 200 µg/mL is 13 mm.

And the MIC [10]?
Its MIC is 300 µg/mL (≈ 1130 µM).

What about the zone of inhibition at 1000 µg/mL [34] of the same compound?
Its zone of inhibition at 1000 µg/mL is 11 mm.

And the MIC [11]?
Its MIC is 500 µg/mL (≈ 1880 µM).

What about the zone of inhibition at 500 µg/mL [35] of the same compound?
The zone of inhibition at 500 µg/mL was 11 mm.

What about the MIC [12] of the same compound?
Its MIC is 500 µg/mL (≈ 1880 µM).

What about the zone of inhibition at 1500 µg/mL [36] of the same compound?
Its zone of inhibition at 1500 µg/mL is 14 mm.

And the zone of inhibition at 200 µg/mL [37]?
Its zone of inhibition at 200 µg/mL is 16 mm.

And the zone of inhibition at 1000 µg/mL [38]?
The zone of inhibition at 1000 µg/mL was 13 mm.

And the zone of inhibition at 1000 µg/mL [39]?
The zone of inhibition at 1000 µg/mL was 21 mm.

What about the MIC [40] of the same compound?
Its MIC is 500 µg/mL (≈ 1880 µM).

What about the zone of inhibition at 100 µg/mL [13] of the same compound?
Its zone of inhibition at 100 µg/mL is 13 mm.

What about the zone of inhibition at 500 µg/mL [41] of the same compound?
Its zone of inhibition at 500 µg/mL is 14 mm.

And the zone of inhibition at 1500 µg/mL [42]?
Its zone of inhibition at 1500 µg/mL is 19 mm.
